The results in this text go back to patent publication US7101878B1 (Agouron Pharmaceuticals, Inc., priority 1998, dated 2006).

The target in series [1] is T1, mouse GnRH receptor (Mus musculus, UniProt Q01776).
T1 construct: expressed in transfected cells; host or cells: 293 cells
T1 sequence (Q01776 1-327): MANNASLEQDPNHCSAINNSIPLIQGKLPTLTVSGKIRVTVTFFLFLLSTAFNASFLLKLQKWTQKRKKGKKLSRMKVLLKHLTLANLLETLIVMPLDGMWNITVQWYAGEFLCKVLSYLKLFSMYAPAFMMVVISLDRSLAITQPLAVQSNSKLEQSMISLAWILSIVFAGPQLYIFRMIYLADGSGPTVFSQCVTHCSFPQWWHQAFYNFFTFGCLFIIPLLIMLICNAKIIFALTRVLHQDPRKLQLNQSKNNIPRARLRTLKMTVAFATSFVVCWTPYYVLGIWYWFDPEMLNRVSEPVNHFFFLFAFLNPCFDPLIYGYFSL
Put plainly: Radioligand binding, 125I-GnRH-A, 293 cells expressing mouse GnRH receptors. The note with it: read-out: mGnRH IC50. In a few lines:
(§1)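 Bound label captured on 0.1% polyethyleneimine-treated GF/C filters, washed three times with PBS, counted. IC50 derived; identical set-up for every species.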

For series [2], the target named is T2, rat GnRH receptor (Rattus norvegicus, UniProt P30969).
T2 sequence (P30969 1-327): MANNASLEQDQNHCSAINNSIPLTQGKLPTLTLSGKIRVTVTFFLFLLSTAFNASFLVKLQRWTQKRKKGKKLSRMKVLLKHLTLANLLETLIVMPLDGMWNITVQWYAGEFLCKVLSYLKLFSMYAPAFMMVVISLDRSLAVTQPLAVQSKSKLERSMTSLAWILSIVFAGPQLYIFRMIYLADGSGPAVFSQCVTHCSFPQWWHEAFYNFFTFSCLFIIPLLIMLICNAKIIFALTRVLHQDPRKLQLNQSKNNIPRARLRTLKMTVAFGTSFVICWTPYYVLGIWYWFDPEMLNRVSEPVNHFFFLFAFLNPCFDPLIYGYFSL
As to the kind of experiment: Radioligand binding, 125I-GnRH-A, rat pituitary membranes. Also noted: membranes were prepared from rat pituitary; from tissue; host or cells: rat pituitary. The note with it: read-out: rGnRH IC50. In a few lines: as §1

For series [3], the target named is T3, human GnRH receptor (Homo sapiens, UniProt P30968).
T3 construct: expressed in transfected cells; host or cells: HEK 293 (hGnRH-R/293, from Dr. Stuart Sealfon)
T3 sequence (P30968 1-328): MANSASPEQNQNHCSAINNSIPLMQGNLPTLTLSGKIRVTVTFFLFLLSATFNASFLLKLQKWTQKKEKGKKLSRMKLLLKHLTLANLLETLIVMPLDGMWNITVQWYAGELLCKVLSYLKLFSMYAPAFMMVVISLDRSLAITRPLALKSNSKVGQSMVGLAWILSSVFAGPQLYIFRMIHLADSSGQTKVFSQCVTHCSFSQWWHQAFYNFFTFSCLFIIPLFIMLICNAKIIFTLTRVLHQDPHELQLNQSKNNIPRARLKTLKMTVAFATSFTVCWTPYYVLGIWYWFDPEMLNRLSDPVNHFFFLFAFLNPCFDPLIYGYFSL
Put plainly: Radioligand binding, 125I-GnRH-A displacement, membranes of HEK 293 cells with human GnRH receptor. The note with it: read-out: hGnRH IC50. In a few lines:
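After filtration and PBS washes, bound radioactivity was counted by scintillation and IC50 derived. Identical conditions applied for non-human receptors.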

A short description of series [4]: Pharmacokinetic studies / bioavailability in rats. It is filed as in vivo, rat. The note with it: rat female.
[5] abbreviates: female, rat, plasma, po, 10 mg/kg, p.o. 10 mg/kg, 5 mg/ml solution in 10% DMSO 10% cremophor 80% saline.

As usually defined, the IC50 is the point on the concentration scale where inhibition reaches its midpoint. For orientation: Cmax means the highest concentration seen after dosing. Broadly, the Tmax is the time at which the peak concentration occurs. What is called half-life is how long it takes for the measured level to halve. A low value points to fast loss. `COc1cc(OC)c(NC(=O)c2ccc(Cc3cc(C(C)(C)C)ccc3C)o2)c(OC)c1` [Compound 200]: the values for the half-maximal inhibitory concentration (IC50) in series [1], in series [2] and in series [3] were 13 nM, 2.8 nM and 42 nM, respectively. The molecule further returned a Cmax in series [4] (setting [5]) of 960 nM. Also, the Tmax in series [4] (setting [5]) stood at 1.5 h. The half-life in series [4] (female, rat, plasma) is 2 h. Moreover, the Fp.o. in series [4] (5 mg/ml solution in 10% DMSO 10% cremophor 80% saline) is on record as 33% (10 mg/kg)^10.
